Tests used:
Format in all cases: in vivo
Abutilon theophrasti [1] = assay: Herbicidal effect post-emergence, ABUTH
Method: (§1) Seeds of mono- and dicotyledonous weed plants and crop plants are planted in wood-fiber pots in sandy loam, covered with earth and grown in a greenhouse under good growth conditions. 2 to 3 weeks after sowing, the test plants are treated in the single-leaf stage. The compounds according to the invention, formulated in the form of wettable powders (WP) or as emulsion concentrates (EC), are then sprayed onto the green plant parts as aqueous suspension or emulsion using an application rate of 600 to 800 l of water/ha (converted) with the addition of 0.2% by weight of wetting agent. After the test plants had been in the greenhouse for ca. 3 weeks under optimum growth conditions, the effect of the preparations is scored visually in comparison with untreated controls (herbicidal effect in percent (%): 100% effect=plants have died off, 0% effect=as control plants).

Amaranthus retroflexus [2] = assay: Herbicidal effect pre-emergence, AMARE; details: 320 g/hectare, visual grading after 3 weeks vs untreated controls
Source text: (§2) Seeds of mono- and dicotyledonous weed plants and crop plants are planted in wood-fiber pots in sandy loam and covered with earth. The compounds according to the invention, formulated in the form of wettable powders (WP) or as emulsion concentrates (EC), are then applied to the surface of the covering earth as aqueous suspension or emulsion at an application rate corresponding to 320 g/hectare at an application rate of 600 to 800 l of water/ha (converted) with the addition of 0.2% wetting agent.
(§3) Following treatment, the pots are placed in a greenhouse and kept under good growth conditions for the test plants. The visual grading of the damage to the test plants is carried out after a test time of 3 weeks in comparison to untreated controls (herbicidal effect in percent (%): 100% effect=plants have died off, 0% effect=as control plants).

Amaranthus retroflexus [3] = assay: Herbicidal effect post-emergence, AMARE
Method: as §1

Echinochloa crus-galli = assay: Herbicidal effect post-emergence, ECHCG
Method: as §1

Veronica persica [4] = assay: Herbicidal effect pre-emergence, VERPE; details: 320 g/hectare, visual grading after 3 weeks vs untreated controls
Source text: as §2, §3

Abutilon theophrasti [5] = assay: Herbicidal effect pre-emergence, ABUTH; details: 320 g/hectare, visual grading after 3 weeks vs untreated controls
Source text: as §2, §3

Matricaria inodora = assay: Herbicidal effect post-emergence, MATIN
Method: as §1

Veronica persica [6] = assay: Herbicidal effect post-emergence, VERPE
Method: as §1

Viola tricolor [7] = assay: Herbicidal effect pre-emergence, VIOTR; details: 320 g/hectare, visual grading after 3 weeks vs untreated controls
Source text: as §2, §3

[8] = test system: Tripleurospermum inodorum; assay: Herbicidal effect pre-emergence, MATIN; details: 320 g/hectare, visual grading after 3 weeks vs untreated controls
Source text: as §2, §3

Ipomoea purpurea = assay: Herbicidal effect post-emergence, PHBPU
Method: as §1

[9] = test system: Polygonum (Fallopia) convolvulus; assay: Herbicidal effect post-emergence, POLCO
Method: as §1

Viola tricolor [10] = assay: Herbicidal effect post-emergence, VIOTR
Method: as §1

Stellaria media = assay: Herbicidal effect post-emergence, STEME
Method: as §1

Setaria viridis [11] = assay: Herbicidal effect pre-emergence, SETVI; details: 320 g/hectare, visual grading after 3 weeks vs untreated controls
Source text: as §2, §3

Setaria viridis [12] = assay: Herbicidal effect post-emergence, SETVI
Method: as §1

Alopecurus myosuroides = assay: Herbicidal effect pre-emergence, ALOMY; details: 320 g/hectare, visual grading after 3 weeks vs untreated controls
Source text: as §2, §3

| Compound | Effect in % in respect of stated plant, ABUTH (Abutilon theophrasti [1]) [%] | Effect in % in respect of stated plant, AMARE (Amaranthus retroflexus [2]) [%] | Effect in % in respect of stated plant, AMARE (Amaranthus retroflexus [3]) [%] | Effect in % in respect of stated plant, ECHCG (Echinochloa crus-galli) [%] | Effect in % in respect of stated plant, VERPE (Veronica persica [4]) [%] | Effect in % in respect of stated plant, ABUTH (Abutilon theophrasti [5]) [%] | Effect in % in respect of stated plant, MATIN (Matricaria inodora) [%] | Effect in % in respect of stated plant, VERPE (Veronica persica [6]) [%] | Effect in % in respect of stated plant, VIOTR (Viola tricolor [7]) [%] | Effect in % in respect of stated plant, MATIN [8] [%] | Effect in % in respect of stated plant, PHBPU (Ipomoea purpurea) [%] | Effect in % in respect of stated plant, POLCO [9] [%] | Effect in % in respect of stated plant, VIOTR (Viola tricolor [10]) [%] | Effect in % in respect of stated plant, STEME (Stellaria media) [%] | Effect in % in respect of stated plant, SETVI (Setaria viridis [11]) [%] | Effect in % in respect of stated plant, SETVI (Setaria viridis [12]) [%] | Effect in % in respect of stated plant, ALOMY (Alopecurus myosuroides) [%] |
| --- | --- | --- | --- | --- | --- | --- | --- | --- | --- | --- | --- | --- | --- | --- | --- | --- | --- |
| Cc1ccc(-c2nc(N)c(Cl)c(C(C#N)C#N)n2)cc1.N [Compound 296] | 80 | 100 | 90 | 80 | 100 | 80 | 90 | 90 |  |  |  |  |  |  |  |  |  |
| CNC.N#CC(C#N)c1nc(-c2ccc(Cl)cc2)nc(N)c1Cl [Compound 310] | 85 | 100 | 95 | 90 | 100 |  | 85 | 87 | 100 | 80 | 80 | 85 | 90 | 80 | 90 | 80 |  |
| CN(C)C.N#CC(C#N)c1nc(-c2ccc(Cl)cc2)nc(N)c1Cl [Compound 311] | 90 | 100 | 90 | 90 | 100 | 80 | 90 | 90 | 100 | 90 |  | 90 | 80 | 80 | 90 | 80 |  |
| C[N+](C)(C)C.N#C[C-](C#N)c1nc(-c2ccc(Cl)cc2)nc(N)c1Cl [Compound 312] | 85 | 95 | 90 | 85 | 100 |  | 90 | 95 | 100 |  |  | 90 | 80 | 80 | 90 | 90 |  |
| N.N#CC(C#N)c1nc(-c2ccc(Br)cc2)nc(N)c1Cl [Compound 321] | 90 | 90 | 100 | 90 | 100 |  | 100 | 90 | 100 |  |  | 100 | 90 | 80 |  | 80 |  |
| N.N#CC(C#N)c1nc(-c2ccc(Cl)c(C(F)(F)F)c2)nc(N)c1Cl [Compound 335] |  |  | 80 |  | 100 |  | 80 |  | 80 | 80 |  |  |  |  |  |  |  |
| N.N#CC(C#N)c1nc(-c2ccc(Cl)cc2F)nc(N)c1Cl [Compound 345] |  | 90 | 100 |  | 100 | 90 | 90 | 90 | 80 | 80 | 90 | 80 | 80 | 90 | 80 |  | 80 |
| Cc1ccc(-c2nc(N)c(Cl)c(C(C#N)C#N)n2)c(F)c1F.N [Compound 387] | 90 |  | 100 | 90 | 100 |  |  | 80 |  |  |  | 100 |  |  |  |  | 80 |
| N.N#CC(C#N)c1nc(-c2ccc(Br)cc2F)nc(N)c1Cl [Compound 392] | 90 | 80 | 100 | 80 | 100 |  | 100 | 90 | 100 |  |  | 90 | 90 | 90 |  | 80 |  |
| CNc1nc(-c2ccc(Cl)cc2)nc(C(C#N)C#N)c1Cl [Ex. No. 41, [5-Chloro-2-(4-chlorophenyl)-6-(methylamino)pyrimidin-4-yl]propanedinitrile] |  |  |  |  |  |  |  |  | 100 | 80 |  |  |  |  |  |  |  |
| N#C[C-](C#N)c1nc(-c2ccc(Cl)cc2)nc(N)c1Cl.[Na+] [Ex. No. 304, Sodium [6-amino-5-chloro-2-(4-chlorophenyl)pyrimidin-4-yl](dicyano)methanide] | 80 | 90 | 100 |  | 100 |  | 90 |  |  | 80 |  | 80 | 80 | 80 | 80 |  |  |
| Cc1ccc(-c2nc(N)c(Cl)c(C(C#N)C#N)n2)cc1 [compound 12] | 80 | 100 | 90 | 80 | 100 | 80 | 80 | 90 |  |  |  | 80 |  |  |  |  |  |
| N#CC(C#N)c1nc(-c2ccc(Cl)cc2F)nc(N)c1Cl [compound 110] |  | 100 | 90 | 80 | 100 |  | 90 | 90 | 90 |  | 80 | 95 | 90 | 90 | 80 | 80 |  |
| N#CC(C#N)c1nc(-c2ccc(Br)cc2F)nc(N)c1Cl [compound 208] | 90 | 80 | 100 |  | 100 | 100 | 100 | 90 |  |  | 80 | 80 | 90 | 90 | 90 |  |  |
| CC(C)c1nc(N)c(Cl)c(C(C#N)C#N)n1 [compound 265] | 80 |  | 100 |  |  |  | 90 | 90 |  |  | 100 | 90 |  | 90 |  |  |  |
